Each structure is given as a SMILES string.

In general, melting point refers to the temperature of the solid-liquid transition.

In the case of `Clc1ccc(-c2cc(C3CCN(CCc4ccccc4)CC3)no2)cc1`, the melting point lay in the range of 118 to 120 °C. In the case of `CCCCCc1c(-c2ccc3cc(OCC#N)ccc3c2)n(Cc2ccccc2)c2ccccc12` it was 109 to 112 °C; in that of `CC(=O)Cc1ccc(-n2ccnc2)cc1`, 71.5 to 72.5 °C; in that of `CNCc1coc(-c2cccc(C3=Nc4ccc(-n5cccc5)cc4NC(=O)C3)c2)n1`, 182 to 183 °C. In the case of `CNCC[C@H](O)c1cccs1` it was 68 to 70 °C; in that of `COC/C=C\c1cccc(C2(c3ccc(OC(F)F)cc3)N=C(N)N(C)C2=O)c1` (stereo not given), 41 to 44 °C. In the case of `CSc1ccc(N2CCCN(/C(C)=C(/C#N)C(=S)/N=C/N(C)C)CC2)cc1` it was 133 to 136 °C. `COC(=O)c1cc(I)ccc1N=C=S` returned a melting point of 60 to 62 °C.

On to `O=c1ccn(C2OC(C(O)CO)C(O)C2O)c(=O)[nH]1` (stereo not given), for which the melting point was 175 to 176 °C. In the case of `CCNC(=O)Nc1cc(-c2c(-c3ccc(F)c(C)c3)nc3c(C)cc(Cl)nn23)ccn1` it was 229 to 230 °C. Consider `CC(=O)Nc1c(C)c2c(c(C)c1N(C)C)OC(C)(C)C2`, for which the melting point fell in the range of 142 to 143 °C. In the case of `CC(=O)Nc1ccc(S(F)(F)(F)(F)F)cc1` it was 131 to 132 °C; in that of `OCCC#Cc1ccc2ccccc2n1`, 89 to 91 °C; in that of `COC1=C(OC)C(=O)C2=C(CCC(CCn3ccccc3=O)CC2)C1=O`, 85 to 89 °C.

As to `CCCc1c(OCCCCCCc2cccc(OC(C)=O)c2OC(C)=O)ccc(C(=O)O)c1O`, the melting point lay within 120 to 122 °C. In the case of `O=C1NC(=O)C(c2ccccc2)=C1Nc1cccc(Cl)c1` it was 188 °C; in that of `Cc1cc(-c2ccc(C(F)(F)F)cc2)nc(-n2cnc(-c3ccc(S(N)(=O)=O)s3)c2)n1`, 277 °C; in that of `CC(=O)Nc1nc2c(s1)-c1nc(-c3ccccc3)ncc1C2`, more than 300 °C. In the case of `CC(C)OC(=O)c1ccc(Nc2cccc(Br)c2)c([N+](=O)[O-])c1` it was 162 to 165 °C; in that of `COc1ccc(-c2ncsc2-c2ccc(OC)cc2)cc1`, 98 to 99 °C; in that of `CCOCc1nc2c(N)nc3cccnc3c2n1CCCON=C1CCN(C)CC1`, 111 to 112 °C. In the case of `Cc1ccc(O)cc1C(CCC(=O)O)Oc1cc(OCc2cccnc2)ccc1C#N` (racemic) it was 198 to 200 °C. Compound `COC(=O)C12Cc3cc(Cl)ccc3C1=NNCO2` (stereo not given) displayed a melting point of 124 to 127 °C. In the case of `O=C(CNC(=O)C(Cc1ccccc1)C(=O)NOCc1ccccc1)OCc1ccccc1` (stereo not given) it was 70 °C; in that of `Cc1ccc(OCCN2CCN(c3nc(N)nc(-c4cc(Cl)ccc4Cl)n3)CC2)cc1`, 140 to 141 °C.

In the case of `Cc1c(NC(=O)c2ccc(OC[C@H]3CCCO3)cc2)ccc2cc(CNCC(C)(C)C)cnc12`, the melting point fell in the range of 110 to 111 °C. For the compound `CC(=O)Oc1ccc(-n2c3c(c(C(C)=O)c2-c2ccccc2)-c2ccccc2CC3)cc1C(=O)O`, the melting point was in the range of 223 to 226 °C. In the case of `CCOC(=O)C1=NOC(c2ccccc2)(c2ccccc2)C1` it was 78 to 81 °C; in that of `Cc1cc(O)ccc1-c1cc2cc(O)ccc2o1`, 167 to 169 °C; in that of `COC(=O)[C@@H]1CSC(=O)N1CC(C)(C)SCc1ccc(OC)cc1`, 51 to 54 °C. In the case of `COc1cc2nc(C(N)=O)sc2cc1OC` it was 211 to 212 °C; in that of `Cc1ccc(-c2csc(-c3cccc(C(=O)O)c3)n2)cc1C`, 235 to 236 °C. In the case of `COc1ccc2c(c1)CC(N(CC(=O)O)C(=O)C(C)CSC(C)=O)CC2` (stereo not given) it was 147 to 150 °C. In the case of `CC(C)(C)c1cc(CS[C@@H]2CCCCCC[C@H]2SCc2cc(C(C)(C)C)cc(C(C)(C)C)c2O)c(O)c(C(C)(C)C)c1` (relative stereo), the melting point lay within 122 to 123 °C. Compound `CCOCN1C(C)=C(C(=O)OC)C(c2cccc([N+](=O)[O-])c2)C(C(=O)OC)=C1C` gave a melting point of 86 to 88 °C. Take `Cn1ncnc1COc1nc2c(-c3c(F)cccc3F)nncn2c1-c1ccccc1`: the melting point turned out to be 190 °C.

`C=C(c1cc(F)ccc1OCc1c(Cl)cccc1Cl)n1ccnc1` gave a melting point of 108 to 110 °C. Regarding `CC(C)c1nc(CO)n(CC2=CCC(=O)N=C2)c1Sc1cc(Cl)cc(Cl)c1`, the melting point came to 220 °C. In turn, `O=C1NC(=O)N(CCc2ccccc2)C1O` (stereo not given) yielded a melting point of 168 to 169 °C. In the case of `COc1cccc2c1OCN(CCc1ccc(C)cc1)C2` it was 58 to 63 °C; in that of `Cn1c(Sc2cccc(C(F)(F)F)c2)nc2c(-c3cccc(C(=O)NCCO)c3)cccc21`, 138 to 139 °C; in that of `COC(=O)[C@@H]1C[C@H](Oc2cc(-c3nc(C(C)C)cs3)nc3c(C)c(OC)ccc23)C[C@H]1C(=O)O`, 135 °C. `Cc1cc(Nc2ccccc2)nc(N)n1`: the melting point was in the range of 179 to 180 °C. In the case of `CCOC(=O)C1CN(C(=O)C(C)(C)C)CCC1=O` (stereo not given) it was 46 to 50 °C.

In turn, `CCNC(=O)c1cc2c(nc(C)n2C)c2c1CCC1(Cc3ccccc3C1)N2` yielded a melting point of 223 to 224 °C. In the case of `Cc1sc2ncc(C(O)CCc3ccccc3)n2c1C` (stereo not given) it was 153 to 154 °C; in that of `COC(=O)/C(=C\C=C\c1sc2ccccc2c1C)OC`, 91 to 92 °C. In the case of `c1ccc(Nn2ccc3ccccc32)nc1` it was 109 to 110 °C. In the case of `O=C(O)C(Cc1ccccc1)C(=O)NC(CS)Cc1ccccc1` (stereo not given) it was 65 to 70 °C; in that of `CS(=O)(=O)c1ccc(Cl)c2[nH]ccc12`, 160 to 162 °C; in that of `O=C(O)CCCC(=O)c1ccc2c(c1)CCO2`, 131 to 133 °C. As to `COC(=O)c1nc2cc(Cn3ccnc3)ccc2[nH]1`, the melting point stood at 228 °C. Compound `NC1CNC(=O)C12CC2` (stereo not given) had a melting point of 97 to 99 °C. In the case of `O=c1[nH]c2cc(Cl)ccc2n1CCO` it was 176 to 178 °C. In the case of `O=C(Nc1cccc2c1C(=O)c1c-2n[nH]c1-c1ccc(C(=O)N2CCC(N3CCCC3)CC2)s1)NN1CCOCC1` it was 228 °C; in that of `O=C(O)c1cc(-n2cccc2)cc(C(F)(F)F)c1`, 191 to 192 °C.

Compound `CN1CCC(Sc2[nH]nc(-c3ccc(Cl)cc3)c2-c2ccncc2)CC1` gave a melting point of 228 °C.

As to `c1ccc(CSc2nc3cc4c(cc3[nH]2)OCCO4)nc1`, the melting point lay within 155 to 156 °C. For `Cn1c(-c2ccc(-c3cccnc3)cc2)cnc1[C@H](Cc1ccccn1)N(C=O)c1cc2cc(Cl)ccc2o1`, the melting point lay within 158 to 160 °C. In the case of `C(=C\C1CCCCC1)/c1nc2ccccc2n1-c1ccccn1` it was 105 to 106 °C; in that of `COC(=O)COc1ccc(NC(=O)NC(=O)c2ccc(C#N)cc2)cc1`, 214 to 217 °C; in that of `C=CCNC(=O)[C@H]1N(C(=O)[C@@H](O)[C@H](Cc2ccccc2)NC(=O)c2cccc(O)c2C)CSC1(C)C`, 173 to 175 °C.

For the compound `COC(=O)c1c(C)nn(-c2ccccn2)c1S(N)(=O)=O`, the melting point lay within 196 to 198 °C.

Compound `OC1CCN(c2nc(-c3ccccc3)nc3ccccc23)CC1` yielded a melting point of 165 to 167 °C. In the case of `O=c1ccc2ccc(CO)cc2o1` it was 116 to 117 °C.

Source of the values: a melting point compilation (Tetko et al.; mined from patent text by program, amines drawn as free bases though some values may be those of a salt).
